Assay results taken from ChEMBL document CHEMBL1142396, “Structure-activity relationships among the nitrogen containing bisphosphonates in clinical use and other analogues: time-dependent inhibition of human farnesyl pyrophosphate synthase” (J Med Chem, 2008).
The source made the active and inactive calls. No cut-off for these calls is given here.

How the values were obtained:
Rattus norvegicus = organism: Rattus norvegicus; test: Inhibition of bone resorption in rat assessed as phosphate; type: functional
[1] = target: T1, Farnesyl pyrophosphate synthase (Homo sapiens, UniProt P14324)
T1 sequence (P14324 whole entry): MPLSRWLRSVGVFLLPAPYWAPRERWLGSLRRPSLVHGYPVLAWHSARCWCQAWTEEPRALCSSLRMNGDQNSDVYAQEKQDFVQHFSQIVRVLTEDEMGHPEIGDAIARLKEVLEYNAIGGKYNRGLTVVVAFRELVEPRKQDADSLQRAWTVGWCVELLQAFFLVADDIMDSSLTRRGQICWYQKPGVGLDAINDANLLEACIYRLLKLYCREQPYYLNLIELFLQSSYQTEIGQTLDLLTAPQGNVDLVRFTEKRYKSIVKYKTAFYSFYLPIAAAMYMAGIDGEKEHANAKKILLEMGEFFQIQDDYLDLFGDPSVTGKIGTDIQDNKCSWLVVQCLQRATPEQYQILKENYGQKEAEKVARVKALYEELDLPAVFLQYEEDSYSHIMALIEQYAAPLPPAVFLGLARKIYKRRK

[2] = target: T1, Farnesyl pyrophosphate synthase; remark: listed apart in the source

Row | IC50 [1] [µM] | Ki [1] [µM] | IC50 [2] [µM] | Ki [2] [µM] | SMILES | LED (Rattus norvegicus) [µg/kg] | Activity (Rattus norvegicus)
1 |  |  |  |  | Cc1cccnc1NC(P(=O)(O)O)P(=O)(O)O | 1 | 
2 |  |  |  |  | CCCCCN(C)CCC(O)(P(=O)(O)O)P(=O)(O)O [IBANDRONIC ACID] | 0.1 | 
3 | 0.869 | 0.112 | 0.0238 | 0.00328 | O=P(O)(O)C(CC1CCCCN1)P(=O)(O)O (stereo not given) |  | 
4 |  |  |  |  | O=P(O)(O)C(O)(Cc1ccccc1)P(=O)(O)O | 100 | 
5 | 243 | 40.5 | 181 | 29.8 | O=P(O)(O)OP(=O)(O)O [PYROPHOSPHORIC ACID] |  | 
6 | 1.89 | 0.32 | 0.0614 | 0.0116 | Cc1cccnc1NC(P(C)(=O)O)P(=O)(O)O (stereo not given) | 1000 | 
7 |  |  |  |  | NCCCCCC(O)(P(=O)(O)O)P(=O)(O)O [NERIDRONIC ACID] | 10 | 
8 | 1.71 | 0.177 | 0.0196 | 0.0039 | C[n+]1cccc(CC(O)(P(=O)(O)O)P(=O)(O)O)c1 | 0.1 | 
9 |  |  |  |  | NCCCC(O)(P(=O)(O)O)P(=O)(O)O [ALENDRONIC ACID] | 1 | 
10 |  |  |  |  | O=P(O)(O)C(Nc1ccccn1)P(=O)(O)O | 10 | 
11 | 0.173 | 0.0348 | 0.0326 | 0.0074 | O=P(O)(O)C(Cc1cccnc1)P(=O)(O)O | 10 | 
12 |  |  |  |  | O=P(O)(O)C(NC1CCCCC1)P(=O)(O)O [(CYCLOHEXYLAMINO)METHYLENEDIPHOSPHONIC ACID] | 1 | 
13 |  |  |  |  | O=P(O)(O)C(O)(CCc1cccnc1)P(=O)(O)O | 1000 | 
14 | > 10000 | > 4000 | 330 | 93 | Cc1cccnc1NC(P(C)(=O)O)P(C)(=O)O (stereo not given) |  | inactive
15 |  |  |  |  | O=P(O)(O)C(CNc1ccccn1)P(=O)(O)O | 10 | 
16 |  |  |  |  | NCCC(O)(P(=O)(O)O)P(=O)(O)O [PAMIDRONIC ACID] | 30 | 
17 |  |  |  |  | O=P(O)(O)C(O)(Cc1cccnc1)P(=O)(O)O [RISEDRONIC ACID] | 0.3 | 
18 | 0.592 | 0.137 | 0.0137 | 0.0016 | O=P(O)(O)C(O)(CC1CCCCN1)P(=O)(O)O (stereo not given) | 1 | 
19 | 0.259 | 0.039 | 0.0304 | 0.00445 | O=P(O)(O)C(Cc1ccccn1)P(=O)(O)O [PIRIDRONIC ACID] | 10 | 
20 |  |  |  |  | O.O=P(O)(O)C(O)(Cn1ccnc1)P(=O)(O)O [ZOLEDRONIC ACID] | 0.1 | 
21 | 0.349 | 0.0593 | 0.0092 | 0.00074 | O=P(O)(O)C(O)(Cc1ccccn1)P(=O)(O)O | 1 | 
22 | 467 | 97.5 |  | 61 | O=C(O)C(O)(Cc1cccnc1)P(=O)(O)O (stereo not given) | 300 | 

Row | SMILES | IC50 [1] [µM] | Ki [1] [µM] | IC50 [2] [µM] | Ki [2] [µM] | LED (Rattus norvegicus) [µg/kg] | Activity (Rattus norvegicus)
23 | CC1CCCN=C1NC(P(=O)(O)O)P(=O)(O)O (stereo not given) | 0.541 | 0.0863 | 0.0103 | 0.001 | 0.3 | 
24 | Cc1cccnc1NCC(P(=O)(O)O)P(=O)(O)O | 0.989 | 0.155 | 0.734 | 0.196 | 1000 | 
25 | Nc1ccccc1CC(O)(P(=O)(O)O)P(=O)(O)O | 0.371 | 0.0646 | 0.0216 | 0.0034 | 1 | 
26 | O=P(O)(O)CCc1cccnc1 |  |  | 824 | 128 |  | 
27 | NCCCCC(O)(P(=O)(O)O)P(=O)(O)O | 1.08 | 0.194 | 0.298 | 0.0482 |  | 
